# Assay results: paper PMC12203311, “Design, synthesis, in silico and in vitro evaluation of pyrrole–indole hybrids as dual tubulin and aromatase inhibitors with potent anticancer activities” (RSC Advances, 2025)
# Like-named read-outs stand apart in the source and are kept apart here.
# Columns and labels:
# SW-620 = test: NCI60 five-dose screen; assay type: cell-based; conditions: Homo sapiens, SW-620, colon cancer; for CC50: read-out: LC50 (the source's name)
# NCI/ADR-RES = test: NCI60 five-dose screen; assay type: cell-based, human; conditions: Homo sapiens, ovarian cancer; for CC50: read-out: LC50 (the source's name)
# OVCAR-4 = test: NCI60 five-dose screen; assay type: cell-based; conditions: Homo sapiens, OVCAR-4, ovarian cancer; for CC50: read-out: LC50 (the source's name)
# MCF7 = test: NCI60 five-dose screen; assay type: cell-based; conditions: Homo sapiens, MCF7, breast cancer; for CC50: read-out: LC50 (the source's name)
# HS 578T = test: NCI60 five-dose screen; assay type: cell-based; conditions: Homo sapiens, breast cancer; for CC50: read-out: LC50 (the source's name)
# UACC-257 = test: NCI60 five-dose screen; assay type: cell-based; conditions: Homo sapiens, UACC-257, melanoma; for CC50: read-out: LC50 (the source's name)
# NCI-H322M = test: NCI60 five-dose screen; assay type: cell-based; conditions: Homo sapiens, NSC lung cancer; for CC50: read-out: LC50 (the source's name)
# SK-OV-3 = test: NCI60 five-dose screen; assay type: cell-based; conditions: Homo sapiens, SK-OV-3, ovarian cancer; for CC50: read-out: LC50 (the source's name)
# MDA-MB-231/ATCC = test: NCI60 five-dose screen; assay type: cell-based; conditions: Homo sapiens, breast cancer; for CC50: read-out: LC50 (the source's name)
# SNB-19 = test: NCI60 five-dose screen; assay type: cell-based; conditions: Homo sapiens, SNB-19, CNS cancer; for CC50: read-out: LC50 (the source's name)
# NCI-H226 = test: NCI60 five-dose screen; assay type: cell-based; conditions: Homo sapiens, NCI-H226, NSC lung cancer; for CC50: read-out: LC50 (the source's name)
# RXF 393 = test: NCI60 five-dose screen; assay type: cell-based; conditions: Homo sapiens, RXF 393, renal cancer; for CC50: read-out: LC50 (the source's name)
# A549/ATCC = test: NCI60 five-dose screen; assay type: cell-based; conditions: Homo sapiens, NSC lung cancer; for CC50: read-out: LC50 (the source's name)
# K-562 = test: NCI60 five-dose screen; assay type: cell-based; conditions: Homo sapiens, K562, K-562, leukemia; for CC50: read-out: LC50 (the source's name)
# Human CYP19 (aromatase) = target: T1, Human CYP19 (aromatase) (Homo sapiens, UniProt P11511); test: Aromatase inhibition assay (DBF fluorometric substrate); assay type: biochemical; conditions: active defined as IC50 < 12.5 µM
# T1 construct: purchased GENTEST, Woburn, MA 456260; host or cells: baculovirus/insect cells
# T1 sequence (P11511 1-503): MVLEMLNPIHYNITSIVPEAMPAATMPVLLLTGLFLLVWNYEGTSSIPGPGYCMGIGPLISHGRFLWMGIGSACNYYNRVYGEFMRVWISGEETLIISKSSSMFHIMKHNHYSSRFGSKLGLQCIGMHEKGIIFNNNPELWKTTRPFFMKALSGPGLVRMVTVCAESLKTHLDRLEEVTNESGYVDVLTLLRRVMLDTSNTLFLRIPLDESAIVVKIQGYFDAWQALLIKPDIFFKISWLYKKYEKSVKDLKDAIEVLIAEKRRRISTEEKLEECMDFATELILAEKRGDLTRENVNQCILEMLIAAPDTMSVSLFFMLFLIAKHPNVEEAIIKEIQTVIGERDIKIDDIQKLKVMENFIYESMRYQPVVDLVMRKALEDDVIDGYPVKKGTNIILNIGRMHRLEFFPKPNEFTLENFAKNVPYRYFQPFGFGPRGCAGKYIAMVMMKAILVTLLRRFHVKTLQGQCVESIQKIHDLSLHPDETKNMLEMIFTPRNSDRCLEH
# Procedure, shortened: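 Insect-cell-expressed human CYP19 Supersomes with oxidoreductase turned over DBF for 30 min at 37 °C after a 10 min 37 °C pre-incubation with cofactor. NaOH quench; product measured by fluorescence, excitation 490 nm, emission 530 nm.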
# EKVX = test: NCI60 five-dose screen; assay type: cell-based; conditions: Homo sapiens, NSC lung cancer; for CC50: read-out: LC50 (the source's name)
# OVCAR-8 = test: NCI60 five-dose screen; assay type: cell-based; conditions: Homo sapiens, OVCAR-8, ovarian cancer; for CC50: read-out: LC50 (the source's name)
# MALME-3M = test: NCI60 five-dose screen; assay type: cell-based; conditions: Homo sapiens, melanoma; for CC50: read-out: LC50 (the source's name)
# NCI-H460 = test: NCI60 five-dose screen; assay type: cell-based; conditions: Homo sapiens, NCI-H460, NSC lung cancer; for CC50: read-out: LC50 (the source's name)
# MOLT-4 = test: NCI60 five-dose screen; assay type: cell-based; conditions: Homo sapiens, MOLT-4, leukemia; for CC50: read-out: LC50 (the source's name)
# M14 = test: NCI60 five-dose screen; assay type: cell-based; conditions: Homo sapiens, M14, melanoma; for CC50: read-out: LC50 (the source's name)
# SF-539 = test: NCI60 five-dose screen; assay type: cell-based; conditions: Homo sapiens, SF-539, CNS cancer; for CC50: read-out: LC50 (the source's name)
# MDA-MB-435 = test: NCI60 five-dose screen; assay type: cell-based, human; conditions: for CC50: read-out: LC50 (the source's name)
# KM12 = test: NCI60 five-dose screen; assay type: cell-based; conditions: Homo sapiens, KM12, colon cancer; for CC50: read-out: LC50 (the source's name)
# DU-145 = test: NCI60 five-dose screen; assay type: cell-based; conditions: Homo sapiens, DU-145, prostate cancer; for CC50: read-out: LC50 (the source's name)
# HCT-15 = test: NCI60 five-dose screen; assay type: cell-based; conditions: Homo sapiens, HCT-15, colon cancer; for CC50: read-out: LC50 (the source's name)
# NCI-H522 = test: NCI60 five-dose screen; assay type: cell-based; conditions: Homo sapiens, NCI-H522, NSC lung cancer; for CC50: read-out: LC50 (the source's name)
# [1] = Homo sapiens, MDA-MB-435, MDA-MB-435, melanoma
# [2] = Homo sapiens, MDA-MB-435, melanoma
compound,measurement,setting,value
"CCc1c[nH]c(/C=N/NC(=O)c2[nH]c3ccc(Br)cc3c2-c2ccccc2)c1 [Derivative 3t, (E)-5-Bromo-N′-((4-ethyl-1H-pyrrol-2-yl)methylene)-3-phenyl-1H-indole-2-carbohydrazide]",GI50,SW-620,0.431 µM
same,CC50,SW-620,42.5 µM
same,GI50,NCI/ADR-RES,0.247 µM
same,CC50,NCI/ADR-RES,22 µM
same,GI50,OVCAR-4,2.17 µM
same,CC50,OVCAR-4,43 µM
same,GI50,MCF7,0.375 µM
same,CC50,MCF7,33.8 µM
same,GI50,HS 578T,0.3 µM
same,CC50,HS 578T,87.3 µM
same,GI50,UACC-257,1.23 µM
same,CC50,UACC-257,41.3 µM
same,GI50,NCI-H322M,2.31 µM
same,CC50,NCI-H322M,49.8 µM
same,GI50,SK-OV-3,0.922 µM
same,CC50,SK-OV-3,35.4 µM
same,GI50,MDA-MB-231/ATCC,0.311 µM
same,CC50,MDA-MB-231/ATCC,42.4 µM
same,GI50,SNB-19,0.396 µM
same,CC50,SNB-19,41.3 µM
same,GI50,NCI-H226,0.33 µM
same,CC50,NCI-H226,28 µM
same,GI50,RXF 393,0.217 µM
same,CC50,RXF 393,21 µM
same,GI50,A549/ATCC,0.397 µM
same,CC50,A549/ATCC,38.8 µM
same,GI50,K-562,0.348 µM
same,CC50,K-562,> 100 µM
same,IC50,Human CYP19 (aromatase),4.7 ± 0.5 µM
same,GI50,EKVX,0.448 µM
same,CC50,EKVX,35.6 µM
same,GI50,OVCAR-8,0.316 µM
same,CC50,OVCAR-8,26 µM
same,GI50,MALME-3M,1.72 µM
same,CC50,MALME-3M,48 µM
same,GI50,NCI-H460,0.346 µM
same,CC50,NCI-H460,20.2 µM
same,GI50,MOLT-4,0.399 µM
same,CC50,MOLT-4,94.2 µM
same,GI50,M14,0.337 µM
same,CC50,M14,38.4 µM
same,GI50,SF-539,0.203 µM
same,CC50,SF-539,19.6 µM
same,CC50,MDA-MB-435; [1],38.7 µM
same,GI50,MDA-MB-435; [2],0.23 µM
same,GI50,KM12,0.325 µM
same,CC50,KM12,34.4 µM
same,GI50,DU-145,0.38 µM
same,CC50,DU-145,39.5 µM
same,GI50,HCT-15,0.319 µM
same,CC50,HCT-15,35.6 µM
same,GI50,NCI-H522,0.206 µM
same,CC50,NCI-H522,29.5 µM
"CCc1cc[nH]c1/C=N/NC(=O)c1[nH]c2ccc(Br)cc2c1-c1ccccc1 [Derivative 3u, (E)-5-Bromo-N′-((3-ethyl-1H-pyrrol-2-yl)methylene)-3-phenyl-1H-indole-2-carbohydrazide]",GI50,SW-620,3.82 µM
same,CC50,SW-620,43.3 µM
same,GI50,NCI/ADR-RES,2.68 µM
same,CC50,NCI/ADR-RES,34.6 µM
same,GI50,OVCAR-4,3.33 µM
same,CC50,OVCAR-4,43.7 µM
same,GI50,MCF7,2.63 µM
same,CC50,MCF7,37.5 µM
same,GI50,HS 578T,3.6 µM
same,CC50,HS 578T,61.8 µM
same,GI50,UACC-257,3.78 µM
same,CC50,UACC-257,40.8 µM
same,GI50,NCI-H322M,3.93 µM
same,CC50,NCI-H322M,43.4 µM
same,GI50,SK-OV-3,2.59 µM
same,CC50,SK-OV-3,42.4 µM
same,GI50,MDA-MB-231/ATCC,5.02 µM
same,CC50,MDA-MB-231/ATCC,44.7 µM
same,GI50,SNB-19,4.5 µM
same,CC50,SNB-19,42.2 µM
same,GI50,NCI-H226,1.97 µM
same,CC50,NCI-H226,37.7 µM
same,GI50,RXF 393,1.19 µM
same,CC50,RXF 393,18.7 µM
same,GI50,A549/ATCC,2 µM
same,CC50,A549/ATCC,41.5 µM
same,GI50,K-562,2.27 µM
same,CC50,K-562,56.2 µM
same,IC50,Human CYP19 (aromatase),9.6 ± 1 µM
same,GI50,EKVX,2.79 µM
same,CC50,EKVX,37.7 µM
same,GI50,OVCAR-8,3.02 µM
same,CC50,OVCAR-8,39.8 µM
same,GI50,MALME-3M,3.5 µM
same,CC50,MALME-3M,40 µM
same,GI50,NCI-H460,1.23 µM
same,CC50,NCI-H460,36.7 µM
same,GI50,MOLT-4,2.37 µM
same,CC50,MOLT-4,55.1 µM
same,GI50,M14,1.62 µM
same,CC50,M14,23.7 µM
same,GI50,SF-539,3.17 µM
same,CC50,SF-539,35.6 µM
same,CC50,MDA-MB-435; [1],41.6 µM
same,GI50,MDA-MB-435; [2],4.12 µM
same,GI50,KM12,3.17 µM
same,CC50,KM12,42.3 µM
same,GI50,DU-145,4.3 µM
same,CC50,DU-145,42.3 µM
same,GI50,HCT-15,1.03 µM
same,CC50,HCT-15,38.8 µM
same,GI50,NCI-H522,2.3 µM
same,CC50,NCI-H522,34.1 µM
"CCOC(=O)c1cc(/C=N/NC(=O)c2[nH]c3ccc(Br)cc3c2-c2ccccc2)c[nH]1 [Derivative 3v, Ethyl (E)-4-((2-(5-bromo-3-phenyl-1H-indole-2-carbonyl)hydrazono)methyl)-1H-pyrrole-2-carboxylate]",GI50,SW-620,4.41 µM
same,CC50,SW-620,40.1 µM
same,GI50,NCI/ADR-RES,2.23 µM
same,CC50,NCI/ADR-RES,21.2 µM
same,GI50,OVCAR-4,9 µM
same,CC50,OVCAR-4,52.8 µM
same,GI50,MCF7,3.03 µM
same,CC50,MCF7,40.3 µM
same,GI50,HS 578T,3.11 µM
same,CC50,HS 578T,> 100 µM
same,GI50,UACC-257,11.7 µM
same,CC50,UACC-257,77.8 µM
same,GI50,NCI-H322M,4.42 µM
same,CC50,NCI-H322M,76.1 µM
same,GI50,SK-OV-3,1.31 µM
same,CC50,SK-OV-3,80.3 µM
same,GI50,MDA-MB-231/ATCC,3.27 µM
same,CC50,MDA-MB-231/ATCC,33.8 µM
same,GI50,SNB-19,4.08 µM
same,CC50,SNB-19,43.4 µM
same,GI50,NCI-H226,4.21 µM
same,CC50,NCI-H226,46.2 µM
same,GI50,RXF 393,2.56 µM
same,CC50,RXF 393,33 µM
same,GI50,A549/ATCC,4.37 µM
same,CC50,A549/ATCC,44.2 µM
same,GI50,K-562,4.59 µM
same,CC50,K-562,> 100 µM
same,IC50,Human CYP19 (aromatase),2.5 ± 0.6 µM
same,GI50,EKVX,7.14 µM
same,CC50,EKVX,60.7 µM
same,GI50,OVCAR-8,3.65 µM
same,CC50,OVCAR-8,38.5 µM
same,GI50,MALME-3M,4.32 µM
same,CC50,MALME-3M,52.8 µM
same,GI50,NCI-H460,3.49 µM
same,CC50,NCI-H460,34.3 µM
same,GI50,MOLT-4,3.91 µM
same,CC50,MOLT-4,> 100 µM
same,GI50,M14,3.54 µM
same,CC50,M14,41.3 µM
same,GI50,SF-539,2.02 µM
same,CC50,SF-539,13.5 µM
same,CC50,MDA-MB-435; [1],9.35 µM
same,GI50,MDA-MB-435; [2],1.54 µM
same,CC50,"MDA-MB-435; MDA-MB-435, melanoma",9.53 µM
same,GI50,KM12,3.37 µM
same,CC50,KM12,35.5 µM
same,GI50,DU-145,3.36 µM
same,CC50,DU-145,33.4 µM
same,GI50,HCT-15,3.21 µM
same,CC50,HCT-15,35.7 µM
same,GI50,NCI-H522,2.41 µM
same,CC50,NCI-H522,61.2 µM
